Entries after “also recorded” stand apart in the source; their conditions may differ.
Key:
freeze-dried Cry j1 = molecular target: T1, freeze-dried Cry j1 (Cryptomeria japonica, UniProt P18632); test: ELISA of freeze-dried Cry j1 after exposure to chlorine dioxide gas in 100 L-Tedlar bag; type: biochemical, Japanese cedar; settings: 24 hours
T1 construct: purchased Hayashibara Biochemical Labs., Inc
Description: (§1) The purified Cry j1 which had been freeze-dried was reacted with chlorine dioxide gas having an average concentration of 0.08 ppm for 24 hours, and measurement was made using ELISA. As a result, 0.08 ppm of chlorine dioxide gas reduced the antigenicity of Cry j1, as compared with the case of air as a control. […] The details will be described below.
In order to examine effect of the chlorine dioxide gas on the freeze-dried Cry j1, […] of the purified Cry j1 adjusted with PBS to the concentration of 10 μg/ml was placed in a […], frozen at −30° C., and freeze-dried overnight using a suction desiccator.
The humidity was controlled using agar, and the generated chlorine dioxide solution was introduced using a syringe into a 100 L-Tedlar bag, so that the concentration therein becomes 0.1 ppm, and air inside the bag was agitated using a crisscross rotor wherein outer diameter of 60 mm×height of 17 mm. Likewise, a bag into which distilled water was introduced was used as a control. The bag was left in an environment of 24° C., and the chlorine dioxide gas concentration inside the bag was measured using a chlorine dioxide gas measuring instrument (Model 4330-SP, Interscan Corporation; measurement range 0 to 1,000 ppb), and when the value was below 0.1 ppm, the generated chlorine dioxide solution was further added to make adjustment. […]

freeze-dried Der fII = molecular target: T2, freeze-dried Der fII (Dermatophagoides farinae, UniProt Q00855); test: ELISA of freeze-dried Der fII after exposure to chlorine dioxide gas in 100 L-Tedlar bag; type: biochemical, mite; settings: 24 hours
T2 sequence (Q00855 18-146): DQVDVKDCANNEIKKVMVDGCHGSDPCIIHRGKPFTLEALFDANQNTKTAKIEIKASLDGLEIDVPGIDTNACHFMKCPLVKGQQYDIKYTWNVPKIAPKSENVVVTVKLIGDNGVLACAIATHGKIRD
Description: as §1, with “Der fII” for “Cry j1”, “a” for “an average”, “0.1” for “0.08”, “Der fII,” for “Cry j1,”
In order to examine effect of the chlorine dioxide gas on the freeze-dried Der fII, 10 μl of the purified Der fII adjusted with PBS to the concentration of 10 μg/ml was placed in a 0.2-mL tube, frozen at −30° C., and freeze-dried overnight using a suction desiccator.
The humidity was controlled by a saturated salt method. Inside a Futon bag, a Tupperware containing salt or water therein was placed so as to obtain a target humidity, and next day, inside the bag, a 100 L-Tedlar bag containing the freeze-dried Der fII and a hygrometer was placed. A Tedlar bag into which chlorine dioxide was introduced was light-shielded with aluminum foil. […] The bag was left in an environment of 24° C., and the chlorine dioxide gas concentration inside bag was measured using a chlorine dioxide detector tube (No. 23M having a measurement range of 0.1 to 10 ppm, No. 23L having a measurement range of 0.025 to 1.2 ppm, GASTEC Corporation), and when the value was below 0.1 ppm, the generated chlorine dioxide gas was further added to make adjustment. […]

T1 sequence (P18632 22-374): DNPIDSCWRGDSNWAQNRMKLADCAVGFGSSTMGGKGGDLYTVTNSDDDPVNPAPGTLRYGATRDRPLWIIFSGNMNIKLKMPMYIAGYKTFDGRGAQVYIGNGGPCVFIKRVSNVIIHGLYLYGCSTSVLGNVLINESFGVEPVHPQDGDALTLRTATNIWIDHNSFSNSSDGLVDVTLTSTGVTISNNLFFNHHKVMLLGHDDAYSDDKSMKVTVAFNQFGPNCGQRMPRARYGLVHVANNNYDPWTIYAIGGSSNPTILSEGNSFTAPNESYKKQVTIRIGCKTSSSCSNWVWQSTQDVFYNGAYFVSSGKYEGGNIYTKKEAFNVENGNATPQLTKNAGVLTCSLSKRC

[O][Cl+][O-] [chlorine dioxide gas, chlorine dioxide]
antigenicity of freeze-dried Cry j1 at higher relative humidity (freeze-dried Cry j1; chlorine dioxide gas 0.1 ppm (average 0.08 ppm), humidity increased): further reduced; also recorded: reduced to a larger degree
antigenicity of freeze-dried Cry j1 (freeze-dried Cry j1; chlorine dioxide gas 0.1 ppm set, 0.08 ppm (80 ppb) on average, 24° C., compared with air control): remarkably reduced
antigenicity of freeze-dried Der fII (freeze-dried Der fII; chlorine dioxide gas 0.1 ppm (0.09 ppm on average), 24° C., compared with air control): remarkably reduced
antigenicity of freeze-dried Der fII at higher relative humidity (freeze-dried Der fII; chlorine dioxide gas 0.1 ppm, humidity increased): reduced to a larger degree; also recorded: further reduced

— US8623392B2, “Allergen inactivating agent” (priority 2007, dated 2014)
